Laboratory results from US20210069275A1, “TRADITIONAL CHINESE MEDICINE COMPOSITION FOR IMPROVING BONE HEALTH AND PREPARATION AND USES THEREOF” (Chenland Nutritionals Inc., priority 2020, published 2021).
Marks after values point to notes of the source that are not given here.

Columns and labels:
Format in all cases: in vivo, rat
osteoporosis model rats [1] = experiment: Femoral mechanical testing (left femur) in osteoporosis model rats; conditions: bilateral ovariectomy female SD rats, intragastric once a day, 8 weeks, 10 mg/kg
Method: (§1) Samples: the traditional Chinese medicine (TCM) composition prepared in Example 1, a positive drug (Estradiol Valerate) and a competing drug (Caltrate).
(§2) Female SD rats were randomly divided into sham operation group, model group, positive control group (estradiol valerate), competing drug group (Caltrate), high dose TCM composition (prepared in Example 1) group and low dose TC′M composition (prepared in Example 1) group, and 8 in each group.
(§3) Female SD rats were treated by bilateral ovariectomy to establish osteoporosis model rats.
(§4) The osteoporosis model rats were subjected to intragastric administration once a day and the administration cycle lasted for 8 weeks.
(§5) After 8 weeks, the rats were sacrificed, and blood was collected from the abdominal aorta and subjected to standing for 1 hour. Then the blood sample was centrifuged to collect serum, which was detected for the bone metabolic biochemical indicators, including bone glaprotein (BGP), bone specific alkaline phosphatase (BALP), carboxyterminal propeptide of type I procollagen (PICP) and N-telopeptides of type I collagen (NTX); estrogen indicators, including serum estradiol E2 and follicle stimulating hormone (FSH); and blood biochemical indexes, including serum phosphorus and serum calcium. […]
(§6) The dosage for rats was calculated as follows: • dosage for rat (daily dose for human/60)*6;

osteoporosis model rats [2] = experiment: Bone metabolic biochemical indicators (BGP, BALP, PICP, NTX) by ELISA in osteoporosis model rats; conditions: bilateral ovariectomy female SD rats, intragastric once a day, 8 weeks, serum, 10 mg/kg
Method: as §1, §2, §3, §4
(§7) After 8 weeks, the rats were sacrificed, and blood was collected from the abdominal aorta and subjected to standing for 1 hour. Then the blood sample was centrifuged to collect serum, which was detected for the bone metabolic biochemical indicators, including bone glaprotein (BGP), bone specific alkaline phosphatase (BALP), carboxyterminal propeptide of type I procollagen (PICP) and N-telopeptides of type I collagen (NTX); estrogen indicators, including serum estradiol E2 and follicle stimulating hormone (FSH); and blood biochemical indexes, including serum phosphorus and serum calcium. Moreover, the complete bilateral femurs were collected, on which the muscle tissues were, completely removed. The left femur was used for femoral mechanical testing, and the right femur was tested for related parameters such as bone density. The above experimental data was used to evaluate the efficacy of the TCM composition of the disclosure.
(§8) The dosage of the TCM composition was determined based on the recommended crude drug dosage in the pharmacopoeia, and 1 g of extract was obtained after the extraction.
(§9) Positive control group: 0.1 g/day for human.
(§10) Competing drug group (Caltrate): one tablet (1 g)/day and 600 mg of calcium/tablet.
(§11) High dose TCM composition group: 1 g/day for human; low dose TCM composition group: 0.5 g/day for human.
as §6

osteoporosis model rats [3] = experiment: Bone density parameters of right femur in osteoporosis model rats; conditions: bilateral ovariectomy female SD rats, intragastric once a day, 8 weeks, femoral metaphysis, 10 mg/kg
Method: as §1, §2, §3, §4, §7, §8, §9, §10, §11, §6

osteoporosis model rats [4] = experiment: Serum biochemical indexes (phosphorus, calcium) in osteoporosis model rats
Method: as §1, §2, §3, §4, §7, §8, §9, §10, §11, §6

osteoporosis model rats [5] = experiment: Serum estrogen indicators (E2, FSH) by ELISA in osteoporosis model rats; conditions: bilateral ovariectomy female SD rats, intragastric once a day, 8 weeks, 10 mg/kg
Method: as §1, §2, §3, §4, §5, §6

[6] = bilateral ovariectomy female SD rats, intragastric once a day, 8 weeks, 10 mg/kg

In the case of `CCCCC(=O)O[C@H]1CC[C@H]2[C@@H]3CCc4cc(O)ccc4[C@H]3CC[C@]12C` [Positive control, Estradiol Valerate], the “Load (maximum load of femur)” value (osteoporosis model rats [1]) is reported as 109.67 ± 26.78 N, the “BALP (bone specific alkaline phosphatase)” value (osteoporosis model rats [2]) is reported as 764.2 ± 123.81 pg/mL and the “BGP (bone glaprotein)” value (osteoporosis model rats [2]) is reported as 9.93 ± 2.23 ng/mL. The “NTX (N-telopeptides of type I collagen)” value (osteoporosis model rats [2]) was 26.92 ± 5.68 ng/mL, the “PICP (carboxyterminal propeptide of type I procollagen)” value (osteoporosis model rats [2]) was 739.33 ± 175.34 ng/mL and the “BMD (bone mineral density)” value (osteoporosis model rats [3]) was 0.198 ± 0.051 g/cm^2. The “BV/TV (bone volume fraction)” value (osteoporosis model rats [3]) was 16.863 ± 5.237 %, the “Tb. N (trabecular number)” value (osteoporosis model rats [3]) was 2.392 ± 0.809* 1/mm and the “Tb. Sp (trabecular separation/spacing)” value (osteoporosis model rats [3]) was 455.6 ± 182.901 μm. The “Ca (serum calcium)” value (osteoporosis model rats [4]; [6]) was 2.33 ± 0.13 mmol/L, the “P (serum phosphorus)” value (osteoporosis model rats [4]; [6]) was 3.1 ± 0.53 mmol/L and the “serum phosphorus content compared to the model group and the sham-operation group” value (osteoporosis model rats [4]; positive control group, 8 weeks' administration, P<0.05) was “significantly higher”. For the same compound, the “E2 (serum estradiol)” value (osteoporosis model rats [5]) was 32.45 ± 10.24 pg/mL and the FSH (osteoporosis model rats [5]) was 96.55 ± 11.84 ng/mL.
